Here are results for eleven molecules from patent US6136825A, “Sulfonamide compounds having 5-HT receptor activity” (Knoll Aktiengesellschaft, priority 1996, dated 2000).

Assay [1] addresses T1, D2-like dopamine receptors (Rattus norvegicus, UniProt P61169).
T1 construct: Striatal tissue from the brains of male Charles River CD rats; from tissue; host or cells: rat striatum (male Charles River CD rats), crude membrane pellet
Put plainly: inhibition of tritiated (S)-sulpiride binding to D2-like dopamine receptors, rat striatal tissue. As to conditions: for Ki: 4° C., 40 minutes, pH 7.7; for inhibition at 1 µM: at 10^-6 M, read-out: % displacement of specific binding, D2-like. On the set-up: species or system male Charles River CD rats. The method, then:
Striatal tissue from the brains of male Charles River CD rats weighing between 140-250 g were homogenised in ice-cold 50 mM Tris-HCl buffer (pH 7.7 when measured at 25° C.) and centrifuged at 40,000 g for 10 minutes. The pellet was resuspended in Tris salts buffer (50 mM Tris-HCl buffer containing 120 mM NaCl, 5 mM KCl, 2 mM CaCl2 and 1 mM MgCl2 with the addition of 6 mM ascorbic acid; pH 7.7 when measured at 25° C.), and again centrifuged at 40,000 g for 10 minutes. The final pellet was stored at -80° C. Before each test the pellet was resuspended in Tris salts buffer (equivalent to 2 mg wet weight of tissue/ml). Aliquots (720 μl; equivalent to 1.44 mg wet weight of tissue/tube) of this suspension were then added to tubes containing the ligand (40 μl; 1 nM) and Tris salts buffer (40 μl; total binding) or spiroperidol (40 μl; 10 nM; non-specific binding) or test compound (40 μl; at a single concentration of 10^-6 M or at 6 concentrations ranging from 10^-11 -10^-4 M). The ligand was tritiated (S)-sulpiride and the mixture was incubated at 4° C. for 40 minutes before the incubation was terminated by rapid filtration.
The filters were washed with ice-cold Tris-HCl buffer and dried. The filters were punched out in to vials, scintillation fluid added and were left for about 20 hours before being counted by scintillation spectrophotometry. The percentage displacement of specific binding of the tritiated ligand was calculated for the single concentration (10^-6 M) of test compound. Displacement curves were then produced over a range of concentrations for those compounds which displaced ≥50% of specific binding of the tritiated ligand at 10^-6 M. The concentration which gave a 50% inhibition of specific binding (IC50) was obtained from the curve. The inhibition coefficient Ki was then calculated using the formula [formula] in which [ligand] is the concentration of the tritiated ligand used and KD is the equilibrium dissociation constant for the ligand.

For a further assay, the target named is T2, 5-HT1A (Rattus norvegicus, UniProt P19327).
T2 construct: Hippocampal tissue from the brains of male Charles River CD rats; from tissue; host or cells: rat hippocampus (male Charles River CD rats), crude membrane pellet
T2 sequence (P19327 1-422): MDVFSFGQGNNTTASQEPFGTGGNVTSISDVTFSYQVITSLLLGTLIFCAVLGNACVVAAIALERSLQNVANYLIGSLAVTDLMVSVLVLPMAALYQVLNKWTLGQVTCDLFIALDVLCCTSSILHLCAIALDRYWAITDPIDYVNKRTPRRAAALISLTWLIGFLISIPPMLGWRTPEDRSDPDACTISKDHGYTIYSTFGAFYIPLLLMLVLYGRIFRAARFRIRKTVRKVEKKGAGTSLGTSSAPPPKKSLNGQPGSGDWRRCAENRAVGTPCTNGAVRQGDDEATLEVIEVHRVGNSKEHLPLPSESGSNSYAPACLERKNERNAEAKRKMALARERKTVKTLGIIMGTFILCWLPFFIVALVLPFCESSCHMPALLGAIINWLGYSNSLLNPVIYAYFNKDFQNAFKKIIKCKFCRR
As to the kind of experiment: inhibition of tritiated ligand ([3H]8-OH-DPAT) binding to 5-HT1A receptors, rat hippocampal tissue. On the set-up: species or system male Charles River CD rats. As to conditions: for inhibition at 1 µM: at 10^-6 M, read-out: % displacement of specific binding, 5-HT1A; for Ki: 25° C., 30 minutes, pH 7.7. The method, then: Hippocampal tissue from the brains of male Charles River CD rats weighing between 150-250 g were homogenised in ice-cold 50 mM Tris-HCl buffer (pH 7.7) when measured at 25° C., 1:40 w/v) and centrifuged at 30,000 g at 4° C. for 10 minutes. The pellet was rehomogenised in the same buffer, incubated at 37° C. for 10 minutes and centrifuged at 30,000 g at 4° C. for 10 minutes. The final pellet was resuspended in 50 mM Tris-HCl buffer (pH 7.7) containing 4 mM CaCl2, 0.1% L-ascorbic acid and 10 μM pargyline hydrochloride (equivalent to 6.25 mg wet weight of tissue/ml) and used immediately in the binding assay. Aliquots (400 μl; equivalent to 2.5 mg wet weight of tissue/tube) of this suspension were added to tubes containing the ligand (50 μl; 2 nM) and distilled water (50 μl; total binding) or 5-HT (50 μl; 10 μM; non-specific binding) or test compound (50 μl; at a single concentration of 10^-6 M or at 10 concentrations ranging from 10^-11 -10^-3 M). The ligand was [^3 H]8-hydroxy-2-(dipropylamino)tetralin ([^3 H]8-OH-DPAT) and the mixture was incubated at 25° C. for 30 minutes before the incubation was terminated by rapid filtration.
The filters were washed with ice-cold Tris-HCl buffer and dried. The filters were punched out into vials, scintillation fluid added and radioactivity determined by liquid scintillation counting. The percentage displacement of specific binding of the tritiated ligand was calculated for the single concentration (10^-6 M) of test compound. Displacement curves were then produced for those compounds which displaced ≥50% of specific binding of the tritiated ligand at 10^-6 M using a range of concentrations of the compound. The concentration which gave 50% inhibition of specific binding (IC50) was obtained from the curve. The inhibition coefficient Ki was then calculated using the formula [formula] in which [ligand] is the concentration of the tritiated ligand used and KD Is the equilibrium dissociation constant for the ligand.

T1 sequence (P61169 whole entry): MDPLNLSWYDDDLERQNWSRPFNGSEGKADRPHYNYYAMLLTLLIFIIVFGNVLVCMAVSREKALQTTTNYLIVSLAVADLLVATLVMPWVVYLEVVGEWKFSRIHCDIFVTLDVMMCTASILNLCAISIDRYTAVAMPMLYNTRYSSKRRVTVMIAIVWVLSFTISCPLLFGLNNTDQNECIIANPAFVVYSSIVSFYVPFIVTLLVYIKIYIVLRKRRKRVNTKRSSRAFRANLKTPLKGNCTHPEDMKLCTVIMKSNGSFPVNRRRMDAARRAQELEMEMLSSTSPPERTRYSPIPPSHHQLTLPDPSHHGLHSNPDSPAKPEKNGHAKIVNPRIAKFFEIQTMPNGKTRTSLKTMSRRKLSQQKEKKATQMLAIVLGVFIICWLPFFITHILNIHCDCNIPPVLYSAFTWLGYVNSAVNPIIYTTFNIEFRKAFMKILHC

Take `O=S(=O)(NCC1CCN(C[C@H]2COc3ccc(Cl)cc3O2)CC1)c1cccc2ccccc12` [Example 31, (S)-N-{[1-(7-Chloro-1,4-benzodioxan-2-ylmethyl)-4-piperidyl]methyl}-1-naphthalenesulphonamide]: the affinity in assay [1] corresponds to a Ki of 215 nM. The inhibition at 1 µM at 5-HT1A was determined as 60%.

With `Cc1cc(C)c(S(=O)(=O)NCC2CCN(C[C@H]3COc4ccc(Cl)cc4O3)CC2)c(C)c1` [Example 21, (S)-N-{[1-(7-Chloro-1,4-benzodioxan-2-ylmethyl)-4-piperidyl]methyl}-2,4,6-trimethylbenzenesulphonamide], the Ki – broadly, the dissociation constant of the complex between target and ligand, obtained from inhibition or displacement – in assay [1] is 249 nM. Also, the inhibition at 1 µM on 5-HT1A turned out to be 71%.

For `O=S(=O)(NCC1CCN(C[C@H]2COc3ccc(Br)cc3O2)CC1)c1ccccc1F` [Example 45, (S)-(-)-N-{[1-(7-Bromo-1,4-benzodioxan-2-ylmethyl)-4-piperidyl]methyl}-2-fluorobenzenesulphonamide], the inhibition at 1 µM in assay [1] was found to be 109%; at 5-HT1A, 97%.

As to `O=S(=O)(NCC1CCN(C[C@H]2COc3ccc(Br)cc3O2)CC1)c1ccccc1Cl` [Example 46, (S)-(-)-N-{[1-(7-Bromo-1,4-benzodioxan-2-ylmethyl)-4-piperidyl]methyl}-2-chlorobenzenesulphonamide], the figures for the inhibition at 1 µM (in assay [1]; on 5-HT1A) were 106% and 96%, respectively.

For the molecule `Cc1ccc(F)cc1S(=O)(=O)NCC1CCN(C[C@H]2COc3ccc(Cl)cc3O2)CC1` [Example 35, (S)-N-{[1-(7-Chloro-1,4-benzodioxan-2-ylmethyl)-4-piperidyl]methyl}-5-fluoro-2-methylbenzenesulphonamide], the inhibitory constant (Ki) in assay [1] is 328 nM. For the same molecule, on 5-HT1A, the inhibition at 1 µM amounted to 81%.

On to `O=S(=O)(NCC1CCN(C[C@H]2COc3ccc(Cl)cc3O2)CC1)c1cccnc1` [Example 3, (S)-(-)-N-{[1-(7-chloro-1,4-benzodioxan-2-ylmethyl)-4-piperidyl]methyl}pyridine-3-sulphonamide 0.8 hydrate], for which the Ki in assay [1] is 28 nM; on 5-HT1A it was 31.6 nM.

With `O=S(=O)(NCC1CCN(C[C@H]2COc3ccc(Cl)cc3O2)CC1)c1cccc(Cl)c1Cl` [Example 43, (S)-(-)-2,3-Dichloro-N-{[1-(7-chloro-1,4-benzodioxan-2-ylmethyl)-4-piperidyl]methyl}benzenesulphonamide], the Ki in assay [1] turned out to be 73 nM; on 5-HT1A it was 1.5 nM.

In the case of `O=S(=O)(NCC1CCN(C[C@H]2COc3ccc(Cl)cc3O2)CC1)c1ccccc1F` [Example 40, (S)-(-)-N-{[1-(7-Chloro-1,4-benzodioxan-2-ylmethyl)-4-piperidyl]methyl}-2-fluorobenzenesulphonamide], the inhibition at 1 µM came to 107% in assay [1] and 93% on 5-HT1A.

Consider `Cc1c([N+](=O)[O-])cc(S(=O)(=O)NCC2CCN(C[C@H]3COc4ccc(Cl)cc4O3)CC2)cc1[N+](=O)[O-]` [Example 26, (S)-N-{[1-(7-Chloro-1,4-benzodioxan-2-ylmethyl)-4-piperidyl]methyl}-4-methyl-3,5-dinitrobenzenesulphonamide], for which the values for the inhibition at 1 µM (in assay [1]; on 5-HT1A) were 87% and 88%, respectively.

As for `O=S(=O)(NCC1CCN(C[C@H]2COc3ccc(Cl)cc3O2)CC1)c1cc(OCC(F)(F)F)ccc1OCC(F)(F)F` [Example 16, (S)-N-{[1-(7-Chloro-1,4-benzodioxan-2-ylmethyl)-4-piperidyl]methyl}-2,5-bis(2,2,2-trifluoroethoxy)benzenesulphonamide], the Ki in assay [1] was 258 nM. The inhibition at 1 µM at 5-HT1A stood at 84%.

`O=S(=O)(NCC1CCN(C[C@H]2COc3ccc(Cl)cc3O2)CC1)c1ccc(Cl)cc1` [Example 11, (S)-(-)-N-{[1-(7-chloro-1,4-benzodioxan-2-ylmethyl)-4-piperidyl]methyl}-4-chlorobenzene-sulphonamide]: the Ki came out at 157 nM in assay [1] and 69 nM on 5-HT1A.
